pIC50: −log10 of the molar value.

Sequence of human chemokine receptor CXCR7 (P25106 whole entry): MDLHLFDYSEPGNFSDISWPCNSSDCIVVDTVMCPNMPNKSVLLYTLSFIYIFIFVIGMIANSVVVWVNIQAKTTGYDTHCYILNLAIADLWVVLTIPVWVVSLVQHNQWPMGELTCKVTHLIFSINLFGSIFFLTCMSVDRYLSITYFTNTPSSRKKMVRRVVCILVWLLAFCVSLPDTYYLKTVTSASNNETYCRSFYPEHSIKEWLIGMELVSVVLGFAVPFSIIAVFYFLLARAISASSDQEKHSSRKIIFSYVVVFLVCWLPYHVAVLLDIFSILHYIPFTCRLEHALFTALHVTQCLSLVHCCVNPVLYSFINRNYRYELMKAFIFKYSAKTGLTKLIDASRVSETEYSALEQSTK

This test addresses human chemokine receptor CXCR7 (Homo sapiens (Human), UniProt P25106). Description: Tango CXCR7-bla U2OS beta-arrestin recruitment assay (beta-lactamase reporter, FRET), antagonism of CXCL12/SDF1-α.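 Note: compounds preincubated 15 min before CXCL12 addition, then 22 h at 37 °C, FRET emission ratio read with CCF4-AM substrate after 2 h.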 The format is cell-based. To be noted: antagonistic effect on CXCR7; Tango CXCR7-bla U2OS cells, CXCL12/SDF1-α at its EC80. (In general: Arrestin recruitment assays detect the binding of arrestin to an activated receptor.)
Broadly, the pIC50 is −log10 of the IC50, conventionally taken in molar units. A higher pIC50 goes with a small IC50. As for `O=C(N[C@H]1CCN(C2CCCC2)C[C@@H]1C(=O)NC1(c2ccccn2)CC1)c1cc(-c2ccc(F)cc2F)on1` [Example 4.028], the pIC50 is 7.49.
The figure for `C[C@@H](NC(=O)[C@@H]1CN(C2CCCCC2)CC[C@H]1NC(=O)c1cn(-c2ccc(F)cc2F)nn1)c1cnccn1` (relative stereo) [Example 1.127, (3R*,4R*)-1-Cyclohexyl-4-{[1-(2,4-difluoro-phenyl)-1H-[1,2,3]triazole-4-carbonyl]-amino}-piperidine-3-carboxylic acid ((R)-1-pyrazin-2-yl-ethyl)-amide] is 6.44; for `CC(NC(=O)[C@H]1CN(C2CCCC2)CC[C@@H]1NC(=O)c1cc(-c2ccc(F)cc2F)on1)c1ccon1` (stereo partly shown) [Example 4.04] it is 7.07.
In turn, `CN(C)C(=O)[C@@H]1CN([C@@H]2C[C@@H]3CC[C@@H]2C3)CC[C@H]1NC(=O)c1cc(-c2ccc(F)cc2F)on1` [Example 2.037] showed a pIC50 of 6.79.
`O=C(N[C@@H]1CCN(CC2CC2)C[C@H]1C(=O)NC1(c2ncccn2)CC1)c1cc(-c2cccc(C(F)(F)F)c2)on1` (racemic) [Example 1.193, rac-(3R*,4R*)-1-Cyclopropylmethyl-4-{[5-(3-trifluoromethyl-phenyl)-isoxazole-3-carbonyl]-amino}-piperidine-3-carboxylic acid (1-pyrimidin-2-yl-cyclopropyl)-amide] had a pIC50 of 6.72. This pIC50 and that of the compound before are within 0.2 log units of each other.
The figure for `C[C@@H](NC(=O)[C@@H]1CN(C2CCCCC2)CC[C@H]1NC(=O)c1cc(-c2ccc(F)cc2F)on1)c1ncccc1F` (relative stereo) [Example 1.092, (3R*,4R*)-1-Cyclohexyl-4-{[5-(2,4-difluoro-phenyl)-isoxazole-3-carbonyl]-amino}-piperidine-3-carboxylic acid [(R)-1-(3-fluoro-pyridin-2-yl)-ethyl]-amide] is 9.00; for `O=C(N[C@@H]1CCN(C2CCCCC2)C[C@H]1C(=O)N1CCC1)c1cc(-c2c(F)cc(F)cc2F)on1` (racemic) [Example 1.105, rac-5-(2,4,6-Trifluoro-phenyl)-isoxazole-3-carboxylic acid [(3R*,4R*)-3-(azetidine-1-carbonyl)-1-cyclohexyl-piperidin-4-yl]-amide] it is 6.37; for `CC(NC(=O)[C@H]1CN(C2CCCC2)CC[C@@H]1NC(=O)c1cc(-c2ccc(F)cc2F)on1)c1ccn[nH]1` (stereo partly shown) [Example 4.041] it is 7.02.
The figure for `C[C@@H]1CCC[C@H]1N1CC[C@@H](NC(=O)c2cc(-c3c(F)cc(F)cc3F)on2)[C@H](C(=O)N(C)C)C1` (relative stereo) [Example 1.101, (3R*,4R*)-1-((1RS,2RS)-2-Methyl-cyclopentyl)-4-{[5-(2,4,6-trifluoro-phenyl)-isoxazole-3-carbonyl]-amino}-piperidine-3-carboxylic acid dimethylamide] is 7.35; for `O=C(N[C@@H]1CCN([C@@H]2CCCC[C@H]2F)C[C@H]1C(=O)O)c1cc(-c2ccc(F)cc2F)on1` [Example 2.04] it is 6.32; for `CC(C1CC1)N1CC[C@@H](NC(=O)c2cc(-c3ccc(F)cc3F)on2)[C@H](C(=O)N(C)C)C1` (stereo partly shown) [Example 2.013] it is 7.55.
The figure for `O=C(N[C@@H]1CCN(C2CCCCC2)C[C@H]1C(=O)NCCOC(F)(F)F)c1cc(-c2ccc(F)cc2F)on1` (racemic) [Example 1.038, rac-(3R*,4R*)-1-Cyclohexyl-4-{[5-(2,4-difluoro-phenyl)-isoxazole-3-carbonyl]-amino}-piperidine-3-carboxylic acid (2-trifluoromethoxy-ethyl)-amide] is 6.31.
Take `C[C@@H](NC(=O)[C@@H]1CN(C2CCCCC2)CC[C@H]1NC(=O)c1cc(-c2c(F)cc(F)cc2F)on1)c1cnccn1` (single isomer, unassigned) [Example 1.129a, (3R*,4R*)-1-Cyclohexyl-4-{[5-(2,4,6-trifluoro-phenyl)-isoxazole-3-carbonyl]-amino}-piperidine-3-carboxylic acid ((R)-1-pyrazin-2-yl-ethyl)-amide]: the pIC50 is 6.19.
